The source of these data is the supplement of paper PMC7224384.

The structures appear in SMILES notation.

Experiment [1] relates to MDA-MB-453. In words: drug sensitivity score (DSS), single agent (DSS (weighted AUC score)); higher = more sensitive (stronger viability decrease); extreme values may be limits of the assay. The conditions noted are these: BLU9931 0 nM; 72 h. The method in brief: (§1)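 Compounds from the FIMM Oncology set were predispensed in singlicate at five 10-fold dilutions (10,000-fold range) on 384-well plates. Each well then received 2000 MDA-MB-453 cells in medium with or without an FGFR4 inhibitor (100 nM final) and was kept at 37 °C, 5% CO2. Cellular ATP was read with CellTiterGlo 2.0 after 72 h and normalised per plate to percent viability from control wells. The drug sensitivity score is a weighted area under a four-parameter logistic fit.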

Experiment [2] deals with MDA-MB-453. In words: drug sensitivity score (DSS), in combination with BLU9931 (DSS (weighted AUC score)); higher = more sensitive (stronger viability decrease); extreme values may be limits of the assay. As to conditions: BLU9931 100 nM; 72 h. The method in brief: as §1

`Cc1cc(C(C)Nc2ccccc2)c2nc(N3CCOCC3)cc(=O)n2c1` (centres undefined) [TGX-221]: the drug sensitivity score turned out to be 2.6 in experiment [1] and 3.2 in experiment [2].
The like results for `CCc1c(C(=O)C(N)=O)c2c(OCC(=O)O)cccc2n1Cc1ccccc1` [Varespladib] were, in that order, 0 and 0.8.
For `CCN(CC)CCN(Cc1ccc(-c2ccc(C(F)(F)F)cc2)cc1)C(=O)Cn1c(SCc2ccc(F)cc2)nc(=O)c2c1CCC2` [Darapladib], in that order: 1.5 and 0.
The like results for `COc1ccc(C[C@H](NC(=O)[C@H](C)NC(=O)CN2CCOCC2)C(=O)N[C@@H](Cc2ccccc2)C(=O)C2(C)CO2)cc1` (stereo in doubt) [ONX-0914] were, in that order, 14.7 and 13.8.
Take `Cn1cc(C2=C(c3cn(C4CCN(Cc5ccccn5)CC4)c4ccccc34)C(=O)NC2=O)c2ccccc21` [Enzastaurin]: the drug sensitivity score in experiment [1] and in experiment [2] was 0 throughout.
Turning to `CC(=O)OC[C@H]1O[C@@H]([S-])[C@H](OC(C)=O)[C@@H](OC(C)=O)[C@@H]1OC(C)=O.CCP(CC)CC.[Au+]` [Auranofin], the drug sensitivity score in experiment [1] is 8.9; in experiment [2], 8.8.
The like results for `CCn1c(-c2nonc2N)nc2c(C#CC(C)(C)O)ncc(OC[C@H]3CCCNC3)c21` were, in that order, 13 and 15.
For `CC(C)(C#N)c1cc(Cn2cncn2)cc(C(C)(C)C#N)c1` [Anastrozole], in that order: 0 and 0.
For `Cc1noc2c1-c1ccccc1C(c1ccc(Cl)cc1)=N[C@H]2CC(N)=O` [CPI-0610], in that order: 9.4 and 10.
Take `Nc1nc(Nc2ccc3c(c2)CC[C@@H](N2CCCC2)CC3)nn1-c1cc2c(nn1)-c1ccccc1CCC2` [BGB324]: the drug sensitivity score was 3.2 in experiment [1] and 0.2 in experiment [2].
The like results for `O=C(c1cccc(Cl)c1F)N1CCN(Cc2cccc(Nc3nccs3)n2)CC1` [MK-8745] were, in that order, 5.4 and 2.4.
For `c1cc(CN2CCCNCCNCCCNCC2)ccc1CN1CCCNCCNCCCNCC1` [Plerixafor], in that order: 0 and 0.
